According to PubChem BioAssay (NCI):
Values joined by “and” are separate entries in the source; they are usually repeats but may differ in a detail not shown here. Identical values can stand only once.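 96-well plates; 48 h exposure; 5 concentrations. Endpoints by linear interpolation between flanking doses. Not reached: highest tested concentration assigned. GI50 marks 50% less growth. At the TGI there is no net growth.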

Experiments:
Experiment in all cases: NCI tumour cell line growth inhibition, 48 h
[1] = tested on: SW-620 colon
[2] = tested on: NCI-H226 lung
[3] = tested on: SK-MEL-28 melanoma
[4] = tested on: KM20L2 colon
[5] = tested on: UACC-62 melanoma
[6] = tested on: HOP-62 NSCLC
[7] = tested on: LOX IMVI melanoma
[8] = tested on: NCI-H460 lung
[9] = tested on: CAKI-1 renal
[10] = tested on: HOP-92 NSCLC

SMILES	TGI [1]	TGI [2]	TGI [3]	TGI [4]	TGI [5]	TGI [6]	TGI [7]	TGI [8]	GI50 [9]	TGI [9]	TGI [10]	GI50 [1]	GI50 [2]	GI50 [3]	GI50 [5]	GI50 [6]	GI50 [7]	GI50 [8]	GI50 [10]	GI50 [4]
NC(Cc1ccccc1)C(=O)OCN1C(=O)C2C3C=CC(C2C1=O)C1C2C(=O)N(COC(=O)C(N)Cc4ccccc4)C(=O)C2C31 (stereo not given)	51.3 µM and 52.8 µM	> 100 µM and 72.1 µM	44.4 µM and 36 µM	67.2 µM and 51.5 µM	41.4 µM and 37.7 µM	> 100 µM	41.4 µM and 36.8 µM	27.4 µM and 30.8 µM	37.8 µM and 77.2 µM	> 100 µM	95.4 µM and > 100 µM									
COc1cc(/C=C/C(=O)c2cccc3ccccc23)cc(OC)c1OC	7.32 µM	30.3 µM	19.4 µM	13.6 µM	21.3 µM	18.8 µM	12.1 µM	14.2 µM		23.2 µM										
COC(=O)C(C(=O)C(=O)Nc1ccc(C)cc1)c1nc2ccc([N+](=O)[O-])cc2[nH]c1=O (stereo not given)	> 100 µM	> 100 µM	> 100 µM	> 100 µM	> 100 µM	> 100 µM	> 100 µM	> 100 µM		> 100 µM										
COc1ccc(C(c2ccccc2C(=O)O)c2ccc(OC)c3ccccc23)c2ccccc12	44.4 µM	63.5 µM		26.5 µM	16.4 µM	30.2 µM	50.6 µM			63.4 µM	50.8 µM									
c1ccc2c(c1)[nH]c1cnc3c4ncccc4[nH]c3c12	> 100 µM	> 100 µM	> 100 µM	> 100 µM	> 100 µM	> 100 µM	> 100 µM	> 100 µM		> 100 µM	79.3 µM									
O=C(CCc1nc(=S)[nH][nH]1)Nc1cc(Cl)ccc1Cl	> 100 µM	> 100 µM	> 100 µM	> 100 µM	> 100 µM	> 100 µM		> 100 µM		> 100 µM	> 100 µM									
Cc1nnc(C[C@@H]2C=C(c3ccc(Cl)cc3)c3ccccc3-n3c(C)nnc32)o1	68.7 µM	> 100 µM	> 100 µM		18.9 µM	> 90.4 µM	16 µM	> 100 µM	0.133 µM	93.7 µM	> 75.1 µM	12 µM	12.6 µM	2.24 µM	0.118 µM	0.318 µM	0.4 µM	11.7 µM	1.96 µM	
CC1=C(C(=O)Nc2cccc(Cl)c2)C(c2ccccc2O)C(C(=O)Nc2cccc(Cl)c2)=C(C)N1	35.8 µM	33.1 µM	31.9 µM	37.7 µM		39.8 µM	39.7 µM	46.4 µM		43.3 µM	37 µM									
Cc1cccc(C(C)(C)C)c1NC(=O)C(C#N)C1=C(Cl)C(=O)c2ccccc2C1=O (stereo not given)	36.3 µM	21.2 µM	31.5 µM	38.4 µM	32.5 µM	32.2 µM	30.7 µM	38.5 µM		31.5 µM	9.68 µM									
Cc1noc2cccc(O)c12	> 100 µM	> 100 µM	> 100 µM	> 100 µM	> 100 µM	> 100 µM	> 100 µM	> 100 µM		> 100 µM	> 100 µM									
COc1cccc(/C=N/[N-]C(=O)c2ccncc2)c1[O-].[Mn+2].[OH3+]	> 100 µM	86.5 µM	> 100 µM	> 100 µM	23.2 µM	> 100 µM	> 100 µM	> 100 µM	8.97 µM	> 100 µM	> 100 µM	4.42 µM	12.4 µM	11.2 µM	3.9 µM	5.86 µM	6.59 µM	4.34 µM	24.7 µM	4.51 µM
COC(=O)C(=O)C(CC(=O)Nc1cc(Cl)ccc1Cl)C(=O)OC (stereo not given)	> 100 µM	> 100 µM	> 100 µM	> 100 µM	> 100 µM	> 100 µM	> 100 µM	> 100 µM		> 100 µM	> 100 µM									
CC(=O)Nc1ccccc1-c1nc2ccccc2nc1-c1ccccc1	> 100 µM		> 100 µM	> 100 µM	> 100 µM	> 100 µM		> 100 µM		> 100 µM	> 100 µM									
N#C/C(=C\c1ccc(O)c(O)c1)C(=O)NCc1ccc(C(F)(F)F)cc1	37.8 µM	54.9 µM	57 µM		13.9 µM	26.9 µM	20.4 µM	> 43 µM		1.81 µM	12.3 µM	7.68 µM	19.8 µM	16.9 µM	4.25 µM	9.48 µM	7.54 µM	6.87 µM	0.468 µM	
NC(N)=NN=c1c(=O)c2ccccc2c1=O	4.76 µM	28.1 µM	3.88 µM		25.8 µM	21 µM	3.25 µM	7.14 µM	18.9 µM	41.2 µM	34.9 µM	1.96 µM	14.8 µM	2 µM	12.7 µM	9 µM	1.58 µM	2.92 µM	19.3 µM	
O=C1OC(CC(=O)c2ccc(F)cc2)C(Cl)=C1Cl (stereo not given)	46.2 µM	33.8 µM	> 100 µM		32.2 µM	72.5 µM	31.9 µM	52.2 µM		92.8 µM	34.7 µM									
CC(Oc1cc2oc(=O)cc(-c3ccccc3)c2cc1Cl)C(=O)O (stereo not given)	> 100 µM	> 100 µM	> 100 µM	> 100 µM	> 100 µM	> 100 µM	> 100 µM	> 100 µM		> 100 µM	> 100 µM									
